Values quoted from earlier work as cited in patent publication US8753679B2, “Capsule formulation of pirfenidone and pharmaceutically acceptable excipients” (Intermune, Inc., priority 2005, dated 2014).
Read-outs that look alike come from different tables or passages of the source.

Columns and labels:
[1] = test system: benign prostate hypertrophy; conditions: oral pirfenidone, older men with clinically advanced BPH
[2] = test system: human mesenchymal-like cells (including lung fibroblasts, skin fibroblasts, prostate stromal cells, and renal mesangial cells)
[3] = 200 mg single dose on day 1, coated tablet with excipients, 15 patients, serum
[4] = oral 400 mg, capsule of 100% pirfenidone
pulmonary fibrosis = conditions: after 4 to 6 months on oral pirfenidone
[5] = single oral dose 400 mg as four 100 mg capsules of 100% pirfenidone, 10 healthy adult males, plasma

AUC4hr [3]: 7300 ± 1600 ng·h/mL
T1/2 [3]: 3.5 ± 2.2 h
Tmax [3]: 1.8 ± 1.1 h
Cmax ([3]; HPLC): 2700 ± 700 ng/mL
T1/2 ([4]; ten human volunteers): 2.87 ± 0.22 h
time at which maximum serum pirfenidone level was reached ([4]; ten human volunteers (FIG. 3)): between one and three hours
AUC6hr [5]: 20.8±10.0 μg/mL-hr
T1/2 [5]: 2.2 ± 0.6 h
Tmax [5]: 0.9 ± 0.3 h
Cmax ([5]; gas chromatography): 6300 ± 2500 ng/mL
SMILES: Cc1ccc(=O)n(-c2ccccc2)c1 [Pirfenidone, 5-methyl-1-phenyl-2-(1H)-pyridone]
response of patients based on objective criteria [1]: functional improvement
effective levels relative to levels exerting pharmacologically toxic effects on the cells ([2]; graded concentrations in cell culture media): ten to twenty times lower
effect on excessive cell proliferation induced by cytokine growth factors (TGF-β1, bFGF, PDGF, and EGF) ([2]; in vitro cell cultures): pharmacologic inhibition
observed side effects (after oral administration, drowsiness, gastric nausea or photosensitivity rash): relatively mild
serious adverse reactions (clinical investigations): No serious adverse reactions
lung function (pulmonary function tests, VC, DLCO) (pulmonary fibrosis): inhibition or blocking of further deterioration in lung function
